# Data as given in PMC7756341, “Liposomal FRET Assay Identifies Potent Drug‐Like Inhibitors of the Ceramide Transport Protein (CERT)” (Chemistry (Weinheim an Der Bergstrasse, Germany), 2020).
# Values joined by “and” are separate entries in the source; they are usually repeats but may differ in a detail not shown here. Equal entries are not always repeated.
# Experiments:
# HeLa cells [1] = assay: Cellular localization of BODIPY-ceramide by confocal microscopy; type: cell-based; conditions: 10 µM inhibitor, 2 h
# HeLa cells [2] = assay: Sphingolipid content of treated HeLa cells by quantitative mass spectrometry; type: cell-based; conditions: for Cer16 / Cer18 / Cer20 / Cer22 / Cer24 / Cer24:1 / Cer total / S1P / SM16 / SM18 / SM20 / SM22 / SM24 / SM24:1 / SM total / Sph / ratio total SM/Cer: HeLa, 42h, single replicates; for Cer16 / Cer18 / Cer20 / Cer22 / Cer24 / Cer24:1 / Cer total / S1P / SM16 / SM18 / SM20 / SM22 / SM24 / SM24:1 / SM total / Sph: 500.000 cells per sample
# How it was run: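 HeLa cells were plated in six-well plates at 177000 cells per well in DMEM containing 4mM L-glutamine, 10% FBS and 1% Penicillin-Streptomycin, then exposed to inhibitor. Harvested cells were adjusted to 500.000 per sample, extracted with methanol/chloroform (2:1) containing Cer17 and d31-SM16 internal standards, and quantified for ceramides and sphingomyelins by C8 reversed-phase HPLC coupled to ESI+ triple-quadrupole MS/MS.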
structure (smiles),measurement,setting,value
"Cc1cc(C2=NOC(c3cc(Cl)cc(Cl)c3)(C(F)(F)F)C2)ccc1C(=O)NCC(=O)NCC(F)(F)F (centres unmarked) [20D5, Fluralaner]",effect on intracellular distribution of BODIPY-Cer,HeLa cells [1],significantly influenced
same,effect on total sphingomyelin,"HeLa cells [2]; HeLa cells, 48 hours, serum-reduced medium",dose‐dependent reduction
same,Cer16,HeLa cells [2]; 1 µM,"45,48 pmol/sample and 40,19 pmol/sample and 39,73 pmol/sample"
same,Cer18,HeLa cells [2]; 1 µM,"6,03 pmol/sample and 4,12 pmol/sample and 3,84 pmol/sample"
same,Cer20,HeLa cells [2]; 1 µM,"2,67 pmol/sample and 1,37 pmol/sample and 1,12 pmol/sample"
same,Cer22,HeLa cells [2]; 1 µM,"11,46 pmol/sample and 9,24 pmol/sample and 9,12 pmol/sample"
same,Cer24,HeLa cells [2]; 1 µM,"40,67 pmol/sample and 36,50 pmol/sample and 37,27 pmol/sample"
same,Cer24:1,HeLa cells [2]; 1 µM,"46,05 pmol/sample and 40,74 pmol/sample and 40,44 pmol/sample"
same,Cer total,HeLa cells [2]; 1 µM,"152,37 pmol/sample and 131,71 pmol/sample and 131,97 pmol/sample"
same,S1P,HeLa cells [2]; 1 µM,"1,21 pmol/sample and 1,34 pmol/sample and 1,10 pmol/sample"
same,SM16,HeLa cells [2]; 1 µM,"1625,68 pmol/sample and 1717,57 pmol/sample and 1686,01 pmol/sample"
same,SM18,HeLa cells [2]; 1 µM,"54,98 pmol/sample and 59,04 pmol/sample and 56,68 pmol/sample"
same,SM20,HeLa cells [2]; 1 µM,"18,10 pmol/sample and 18,45 pmol/sample and 17,14 pmol/sample"
same,SM22,HeLa cells [2]; 1 µM,"110,98 pmol/sample and 111,56 pmol/sample and 111,04 pmol/sample"
same,SM24,HeLa cells [2]; 1 µM,"197,09 pmol/sample and 206,21 pmol/sample and 199,98 pmol/sample"
same,SM24:1,HeLa cells [2]; 1 µM,"621,75 pmol/sample and 662,66 pmol/sample and 645,68 pmol/sample"
same,SM total,HeLa cells [2]; 1 µM,"2628,58 pmol/sample and 2775,49 pmol/sample and 2716,53 pmol/sample"
same,Sph,HeLa cells [2]; 1 µM,"3,74 pmol/sample and 3,07 pmol/sample and 3,46 pmol/sample"
same,ratio total SM/Cer,HeLa cells [2]; 1 µM,"19,9 and 18,2 and 20,6"
same,Cer16,HeLa cells [2]; 2.5 µM,"40,44 pmol/sample and 43,49 pmol/sample and 36,97 pmol/sample"
same,Cer18,HeLa cells [2]; 2.5 µM,"4,61 pmol/sample and 4,98 pmol/sample and 3,95 pmol/sample"
same,Cer20,HeLa cells [2]; 2.5 µM,"1,33 pmol/sample and 1,40 pmol/sample and 1,09 pmol/sample"
same,Cer22,HeLa cells [2]; 2.5 µM,"9,74 pmol/sample and 10,99 pmol/sample and 8,69 pmol/sample"
same,Cer24,HeLa cells [2]; 2.5 µM,"35,83 pmol/sample and 40,22 pmol/sample and 34,92 pmol/sample"
same,Cer24:1,HeLa cells [2]; 2.5 µM,"37,47 pmol/sample and 43,87 pmol/sample and 37,54 pmol/sample"
same,Cer total,HeLa cells [2]; 2.5 µM,"129,42 pmol/sample and 144,94 pmol/sample and 123,16 pmol/sample"
same,S1P,HeLa cells [2]; 2.5 µM,"1,21 pmol/sample and 1,29 pmol/sample (2×)"
same,SM16,HeLa cells [2]; 2.5 µM,"1311,55 pmol/sample and 1447,18 pmol/sample and 1450,27 pmol/sample"
same,SM18,HeLa cells [2]; 2.5 µM,"48,19 pmol/sample and 50,02 pmol/sample and 51,79 pmol/sample"
same,SM20,HeLa cells [2]; 2.5 µM,"16,11 pmol/sample and 17,46 pmol/sample and 16,39 pmol/sample"
same,SM22,HeLa cells [2]; 2.5 µM,"98,76 pmol/sample and 109,23 pmol/sample and 102,97 pmol/sample"
same,SM24,HeLa cells [2]; 2.5 µM,"179,29 pmol/sample and 202,61 pmol/sample and 193,22 pmol/sample"
same,SM24:1,HeLa cells [2]; 2.5 µM,"587,13 pmol/sample and 553,18 pmol/sample and 603,33 pmol/sample"
same,SM total,HeLa cells [2]; 2.5 µM,"2401,78 pmol/sample and 2207,08 pmol/sample and 2429,82 pmol/sample"
same,Sph,HeLa cells [2]; 2.5 µM,"3,04 pmol/sample and 3,17 pmol/sample and 2,91 pmol/sample"
same,ratio total SM/Cer,HeLa cells [2]; 2.5 µM,"19,5 and 17,1 and 16,8"
same,Cer16,HeLa cells [2]; 5 µM,"48,26 pmol/sample and 50,29 pmol/sample and 47,46 pmol/sample"
same,Cer18,HeLa cells [2]; 5 µM,"5,41 pmol/sample and 5,92 pmol/sample and 5,34 pmol/sample"
same,Cer20,HeLa cells [2]; 5 µM,"1,35 pmol/sample and 1,41 pmol/sample and 1,29 pmol/sample"
same,Cer22,HeLa cells [2]; 5 µM,"9,51 pmol/sample and 10,83 pmol/sample and 9,59 pmol/sample"
same,Cer24,HeLa cells [2]; 5 µM,"33,23 pmol/sample and 39,15 pmol/sample and 38,78 pmol/sample"
same,Cer24:1,HeLa cells [2]; 5 µM,"35,26 pmol/sample and 38,24 pmol/sample and 35,25 pmol/sample"
same,Cer total,HeLa cells [2]; 5 µM,"133,01 pmol/sample and 145,85 pmol/sample and 137,71 pmol/sample"
same,S1P,HeLa cells [2]; 5 µM,"1,32 pmol/sample and 1,22 pmol/sample and 1,19 pmol/sample"
same,SM16,HeLa cells [2]; 5 µM,"1128,33 pmol/sample and 1262,96 pmol/sample and 1233,63 pmol/sample"
same,SM18,HeLa cells [2]; 5 µM,"43,19 pmol/sample and 47,39 pmol/sample and 44,90 pmol/sample"
same,SM20,HeLa cells [2]; 5 µM,"13,45 pmol/sample and 15,19 pmol/sample and 13,75 pmol/sample"
same,SM22,HeLa cells [2]; 5 µM,"74,74 pmol/sample and 85,38 pmol/sample and 82,05 pmol/sample"
same,SM24,HeLa cells [2]; 5 µM,"132,70 pmol/sample and 158,23 pmol/sample and 155,99 pmol/sample"
same,SM24:1,HeLa cells [2]; 5 µM,"419,73 pmol/sample and 481,61 pmol/sample and 461,72 pmol/sample"
same,SM total,HeLa cells [2]; 5 µM,"1812,15 pmol/sample and 2050,77 pmol/sample and 1992,04 pmol/sample"
same,Sph,HeLa cells [2]; 5 µM,"3,25 pmol/sample and 3,29 pmol/sample and 4,27 pmol/sample"
same,ratio total SM/Cer,HeLa cells [2]; 5 µM,"13,6 and 14,1 and 14,5"
